Test results from ChEMBL document CHEMBL3808277, “Identification of a Potent and Selective GPR4 Antagonist as a Drug Lead for the Treatment of Myocardial Infarction” (ACS Med Chem Lett, 2016).
Activity calls are given as the source filed them. The rule behind the calls is not given here.

What was measured:
[1] = target: T1, G-prodeshotein coupled receptor 4 (Homo sapiens, UniProt P46093); assay: Antagonist activity at N-terminal HA-tagged GPR4 (unknown origin) expressed in HEK293 cells assessed as pH dependent cAMP response element-driven transcriptional activity ratio at 10 uM at pH 7.2 incubated for 6 hrs by dual luciferase reporter gene assay relative to untreated control; format: functional, cell-based
Target sequence in this assay (P46093 whole entry, looked up): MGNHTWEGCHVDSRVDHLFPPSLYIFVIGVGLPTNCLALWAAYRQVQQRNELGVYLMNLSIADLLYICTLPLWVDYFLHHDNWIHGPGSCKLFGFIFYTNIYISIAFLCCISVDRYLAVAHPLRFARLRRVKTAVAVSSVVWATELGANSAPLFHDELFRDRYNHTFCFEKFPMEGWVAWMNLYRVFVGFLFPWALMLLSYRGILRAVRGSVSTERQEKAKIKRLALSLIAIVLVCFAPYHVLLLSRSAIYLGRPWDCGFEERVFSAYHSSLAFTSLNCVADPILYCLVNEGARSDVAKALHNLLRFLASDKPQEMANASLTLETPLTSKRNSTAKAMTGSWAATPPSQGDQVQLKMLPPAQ

[2] = target: T1, G-prodeshotein coupled receptor 4; assay: Antagonist activity at N-terminal HA-tagged GPR4 (unknown origin) expressed in HEK293 cells assessed as inhibition of pH dependent cAMP response element-driven transcriptional activity at pH 7.2 incubated for 6 hrs by dual luciferase reporter gene assay; format: functional, cell-based
Target sequence in this assay (P46093 whole entry): as the sequence (P46093 whole entry, looked up) above

[3] = target: T2, G-protein coupled receptor 68 (Homo sapiens, UniProt Q15743); assay: Antagonist activity at N-terminal HA-tagged OGR1 (unknown origin) expressed in HEK293 cells assessed as inhibition of pH dependent nuclear factor of activated T-cell activity at >1 uM at pH 7.2 incubated for 6 hrs by dual luciferase reporter gene assay; format: cell-based
[4] = target: T3, G-protein coupled receptor 65 (Homo sapiens, UniProt Q8IYL9); assay: Antagonist activity at N-terminal HA-tagged TDAG8 receptor (unknown origin) expressed in HEK293 cells assessed as inhibition of pH dependent cAMP response element-driven transcriptional activity at >1 uM at pH 7.2 incubated for 6 hrs by dual luciferase reporter gene assay; format: functional, cell-based
Mus musculus [5] = assay: (§1) Increase in survival of C57BL/6J mouse permanent left anterior descending coronary artery ligation model of myocardial infarction assessed as survival rate at 6.7 mg/kg/day, ip bid dosed from 1 day before to 7 day after myocardial infarction without operation day measured up to 28 days (reference value: 14.3 %); format: functional
[6] = target: T3, G-protein coupled receptor 65; assay: Antagonist activity at N-terminal HA-tagged TDAG8 receptor (unknown origin) expressed in HEK293 cells assessed as inhibition of pH dependent cAMP response element-driven transcriptional activity at pH 7.2 incubated for 6 hrs by dual luciferase reporter gene assay; format: functional, cell-based
[7] = target: T2, G-protein coupled receptor 68; assay: Antagonist activity at N-terminal HA-tagged OGR1 (unknown origin) expressed in HEK293 cells assessed as inhibition of pH dependent nuclear factor of activated T-cell activity at pH 7.2 incubated for 6 hrs by dual luciferase reporter gene assay; format: cell-based
Mus musculus [8] = assay: as §1, with “20” for “6.7”; format: functional

T3 sequence (Q8IYL9 whole entry): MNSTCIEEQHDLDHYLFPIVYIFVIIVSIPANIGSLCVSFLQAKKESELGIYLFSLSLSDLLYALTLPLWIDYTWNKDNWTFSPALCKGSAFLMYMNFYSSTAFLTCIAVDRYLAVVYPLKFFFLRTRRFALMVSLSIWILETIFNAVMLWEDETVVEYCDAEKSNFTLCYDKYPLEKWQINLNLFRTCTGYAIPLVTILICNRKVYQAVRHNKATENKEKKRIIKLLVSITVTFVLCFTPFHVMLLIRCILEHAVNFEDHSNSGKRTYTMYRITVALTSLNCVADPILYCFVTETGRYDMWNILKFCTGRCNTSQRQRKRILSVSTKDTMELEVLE
T2 sequence (Q15743 whole entry): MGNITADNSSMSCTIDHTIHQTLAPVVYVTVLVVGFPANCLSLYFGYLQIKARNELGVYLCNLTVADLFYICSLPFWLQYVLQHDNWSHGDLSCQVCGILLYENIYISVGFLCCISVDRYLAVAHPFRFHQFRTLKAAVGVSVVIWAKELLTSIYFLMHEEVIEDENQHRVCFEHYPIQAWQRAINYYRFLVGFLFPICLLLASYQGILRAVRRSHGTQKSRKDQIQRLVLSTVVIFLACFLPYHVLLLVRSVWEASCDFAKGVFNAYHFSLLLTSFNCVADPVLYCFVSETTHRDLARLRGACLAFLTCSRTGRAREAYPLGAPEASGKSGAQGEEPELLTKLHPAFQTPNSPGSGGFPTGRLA

Ratio [1]	IC50 [2]	SMILES	further results
1.24	–	Cc1nccn1Cc1ccc2c(c1)CCc1ccccc1N2	–
0.41	–	CCc1nc2c(C)cc(C)nc2n1Cc1ccc2c(c1)CCc1cc(CN3CCOCC3)ccc1N2	–
1.11	–	c1ccc2c(c1)CCc1cc(Cn3ccnc3)ccc1N2	–
1.03	–	c1ccc2c(c1)CCc1cc(Cn3c4ccccc4c4ccccc43)ccc1N2	–
0.42	130 nM	CCc1nc2c(C)cc(C)nc2n1Cc1ccc2c(c1)CCc1cc(CN3CCN(C)CC3)ccc1N2	inhibition [3]: Active; inhibition [4]: Active
0.22	900 nM	CCc1nc2c(C)cc(C)nc2n1Cc1ccc2c(c1)CCc1ccccc1N2	–
0.38	910 nM	CCc1nc2c(C)cc(C)nc2n1Cc1ccc2c(c1)Sc1ccccc1N2	–
0.44	–	c1ccc2c(c1)CCc1cc(Cn3ccc4ccccc43)ccc1N2	–
0.36	–	CCc1nc2c(C)cc(C)nc2n1Cc1ccc2c(c1)C=Cc1ccccc1N2	–
1.22	–	CCc1nccn1Cc1ccc2c(c1)CCc1ccccc1N2	–
0.52	–	CCc1nc2c(C)cc(C)nc2n1Cc1ccc2ccccc2c1	–
0.54	> 10000 nM	CCc1nc2c(C)cc(C)nc2n1Cc1ccc(Nc2ccccc2)cc1	–
0.44	> 10000 nM	CCc1nc2ccccc2n1Cc1ccc2c(c1)CCc1ccccc1N2	–
0.57	–	Cc1nc2ccccc2n1Cc1ccc2c(c1)CCc1ccccc1N2	–
0.72	–	CCc1nc2c(C)cc(C)nc2n1Cc1ccccc1	–
0.4	–	CCc1nc2c(C)cc(C)nc2n1Cc1ccc2c(c1)CCc1cc(CN3CCCC3)ccc1N2	–
0.52	> 10000 nM	c1ccc2c(c1)CCc1cc(Cn3cnc4ccccc43)ccc1N2	–

SMILES	Ratio [1]	IC50 [2]	further results
CCc1nc2c(C)cc(C)nc2n1Cc1ccc2c(c1)CCc1cc(CN3CCCCC3)ccc1N2	0.39	67 nM	survival at 6.7 mg/kg/day (Mus musculus [5]): 100%; IC50 [6]: > 10 µM; IC50 [7]: > 10 µM; survival at 20 mg/kg/day (Mus musculus [8]): 62.5%
